Measured values taken from US4361553A, “Therapeutic uses of dynorphin” (Regents of the University of California, priority 1981, dated 1982).

Assays:
morphine tolerant mice [1] = experiment: Tail-flick analgesia, β-endorphin i.c.v. with or without dynorphin-(1-13) i.c.v., morphine tolerant group (Example II); assay type: in vivo; details: for ED50 of β-endorphin: i.c.v.
Procedure: (§1) Male simonesen ICR mice (Gilroy, CA) weighing between 20-25 g were housed for at least one day prior to experimentation, and used within 5 days. Each mouse was used only once.
(§2) Analgesia was measured by the tail-flick method of D'Amour and Smith, J.Pharmac.Exp.Ther., 72, pp. 74-79 (1941), incorporated herein by reference, as modified by Tulunay and Takemori, J.Pharmac.Exp.Ther., 190, pp. 395-400 (1974), incorporated herein by reference. […] Nonresponding animals were removed from the heat stimulus when reaction times exceeded 10 sec. to avoid the tail damage.
(§3) Drugs were injected 30 min prior to testing, unless otherwise indicated.
(§4) The animals were separated into two groups.
(§5) The ED50 values, their 95% confidence limits and significance of the potency ratio between two ED50 values were determined by the method of Litchfield and Wilcoxon, J.Pharmacol.Exp.Ther, 96:99-113 (1949), incorporated herein by reference.

morphine dependent mice = experiment: Spontaneous withdrawal jumping after removal of morphine pellets (Example IV); assay type: in vivo; details: compared with saline
Procedure: Mice which jumped were separated and received 4 μl of saline i.c.v. or different doses of dynorphin, and tested 30 min and then 60 min after injection.

mouse vas deferens = details: cited from earlier work
guinea pig ileum = details: cited from earlier work
morphine tolerant mice [2] = experiment: Tail-flick analgesia, morphine s.c. with or without dynorphin-(1-13) i.c.v., morphine tolerant group (Example I); assay type: in vivo; details: dynorphin alone up to 50 μg/mouse
Procedure: as §1, §2, §3, §4, §5

naive mice = experiment: Tail-flick analgesia, morphine s.c. with or without dynorphin-(1-13) i.c.v., naive group (Example III); assay type: in vivo
Procedure: as §1, §2, §3, §4, §5

[3] = Addictiveness compared with morphine; assay type: in vivo

β-endorphin
ED50 of β-endorphin (morphine tolerant mice [1]; in the presence of 10 μg dynorphin-(1-13)): about 1.00 μg/mouse
ED50 of β-endorphin (morphine tolerant mice [1]; in the presence of 20 μg dynorphin-(1-13)): about 0.55 μg/mouse
Analgesia (%) (morphine tolerant mice [1]; β-endorphin 1 μg/mouse i.c.v. alone): 10%
Analgesia (%) (morphine tolerant mice [1]; β-endorphin 2 μg/mouse i.c.v. alone): 40%
Analgesia (%) (morphine tolerant mice [1]; β-endorphin 6 μg/mouse i.c.v. alone): 100%

dynorphin
Effect on withdrawal (morphine dependent mice): significantly reduced, or repressed, withdrawal
Agonist properties in mouse vas deferens (mouse vas deferens): potent agonist properties
Agonist properties in guinea pig ileum (guinea pig ileum): potent agonist properties
Own analgesic potency (morphine tolerant mice [2]): no analgesic potency

CN1CC[C@]23c4c5ccc(O)c4O[C@H]2[C@@H](O)C=C[C@H]3[C@H]1C5.O=S(=O)(O)O [Morphine, morphine sulfate]
Analgesia (%) (naive mice; morphine 2 mg/kg s.c. alone): 10%
Analgesia (%) (naive mice; morphine 4 mg/kg s.c. alone): 30%
Analgesia (%) (naive mice; morphine 7.5 mg/kg s.c. alone): 80%

CC[C@H](C)[C@H](NC(=O)[C@H](CCCNC(=N)N)NC(=O)[C@H](CCCNC(=N)N)NC(=O)[C@H](CC(C)C)NC(=O)[C@H](Cc1ccccc1)NC(=O)CNC(=O)CNC(=O)[C@@H](N)Cc1ccc(O)cc1)C(=O)N[C@@H](CCCNC(=N)N)C(=O)N1CCC[C@H]1C(=O)N[C@@H](CCCCN)C(=O)N[C@@H](CC(C)C)C(=O)N[C@@H](CCCCN)C(=O)O [dynorphin-(1-13)]
Times less addictive than morphine [3]: at least 100 times
